Laboratory results: ChEMBL document CHEMBL3108669, “Modulation of reactive oxygen species photogeneration of bacteriopheophorbide a derivatives by exocyclic E-ring opening and charge modifications” (J Med Chem, 2014)

Legend:
Format in all cases: physicochemical
[1] = Induction of ROS generation in RPMI-1640 cell culture media/DMSO/cremophor solution by AUR-based fluorescence assay
[2] = Induction of ROS generation in water/cremophor/DMF solution by AUR-based fluorescence assay; conditions: buffer
[3] = Induction of ROS generation in MeOH/PBS solution by SOSG-based fluorescence assay; conditions: buffer
[4] = Induction of ROS generation in MeOH/PBS solution by AUR-based fluorescence assay; conditions: buffer
[5] = Induction of ROS generation in water/cremophor/DMF solution by SOSG-based fluorescence assay; conditions: buffer
[6] = Induction of ROS generation in RPMI-1640 cell culture media/DMSO/cremophor solution by SOSG-based fluorescence assay

Row | Compound | Activity [1] | Activity [2] | Activity [3] | Activity [4] | Activity [5] | Activity [6]
1 | CC[C@H]1c2cc3[nH]c(c(CC(=O)OC)c4nc(cc5[nH]c(cc(n2)[C@@H]1C)c(C(C)=O)c5C)[C@@H](C)[C@@H]4CCC(=O)NCCS(=O)(=O)O)c(C(=O)NCCS(=O)(=O)O)c3C | Active | Active | Active | Active | Active | Active
2 | CC[C@H]1c2cc3[nH]c4c(c3C)C(=O)[C@H](C(=O)OC)c4c3nc(cc4[nH]c(cc(n2)[C@@H]1C)c(C(C)=O)c4C)[C@@H](C)[C@@H]3CCC(=O)OCC[N+](C)(C)C | Active | Active | Active | Active | Active | Active
3 | CC[C@H]1c2cc3[nH]c(c(CC(=O)OC)c4nc(cc5[nH]c(cc(n2)[C@@H]1C)c(C(C)=O)c5C)[C@@H](C)[C@@H]4CCC(=O)OCC[N+](C)(C)C)c(C(=O)NCCS(=O)(=O)O)c3C | Active | Active | Active | Active | Active | Active
4 | CC[C@H]1c2cc3[nH]c(c(CC(=O)OC)c4nc(cc5[nH]c(cc(n2)[C@@H]1C)c(C(C)=O)c5C)[C@@H](C)[C@@H]4CCC(=O)OC)c(C(=O)NCCS(=O)(=O)O)c3C | Active | Active | Active | Active | Active | Active
5 | CC[C@H]1c2cc3[nH]c(c(CC(=O)OC)c4nc(cc5[nH]c(cc(n2)[C@@H]1C)c(C(C)=O)c5C)[C@@H](C)[C@@H]4CCC(=O)O)c(C(=O)NCCS(=O)(=O)O)c3C | Active | Active | Active | Active | Active | Active

More lines, now with the values ahead:

Row | Activity [1] | Activity [2] | Activity [3] | Activity [4] | Activity [5] | Activity [6] | Compound
6 | Active | Active | Active | Active | Active | Active | CC[C@H]1c2cc3[nH]c4c(c3C)C(=O)[C@H](C(=O)OC)c4c3nc(cc4[nH]c(cc(n2)[C@@H]1C)c(C(C)=O)c4C)[C@@H](C)[C@@H]3CCC(=O)NCCS(=O)(=O)O
7 | Active | Active | Active | Active | Active | Active | CC[C@H]1c2cc3[nH]c4c(c3C)C(=O)[C@H](C(=O)OC)c4c3nc(cc4[nH]c(cc(n2)[C@@H]1C)c(C(C)=O)c4C)[C@@H](C)[C@@H]3CCC(=O)OC
8 | Active | Active | Active | Active | Active | Active | CC[C@H]1c2cc3[nH]c4c(c3C)C(=O)[C@H](C(=O)OC)c4c3nc(cc4[nH]c(cc(n2)[C@@H]1C)c(C(C)=O)c4C)[C@@H](C)[C@@H]3CCC(=O)O
